# Results: patent US20130053406A1, “THERAPEUTIC COMPOUNDS AND USES THEREOF” (Myrexis, Inc., priority 2009, published 2013)
# Tests used:
# purified human Hsp90 = test: Hsp90 binding assay (fluorescence polarization, displacement of BODIPY-geldanamycin); settings: displacement of BODIPY-GM (10 nM) from purified human Hsp90 (30 nM), overnight at room temperature
# Method: Plates are incubated overnight at room temperature. Parallel and perpendicular fluorescence measurements are read (LJL BioSystems Analyst AD plate reader) at excitation/emission wavelengths of 485/530 nm. Background fluorescence (buffer only) is subtracted, and fluorescence polarization (FP) values, expressed in mP units, are calculated from parallel and perpendicular fluorescence readings as follows:
# Percent inhibition is calculated by normalizing the FP values to those obtained in parallel reactions containing DMSO and subtracting these normalized values from 100%. Intrinsic compound fluorescence is independently monitored, and FP data points confounded by compound fluorescence are excluded from the analysis.
# HCT116 cells = test: Cytotoxicity assay (ATPLite, 72 hours); assay type: cell-based; settings: Homo sapiens, HCT-116, ATPLite luminescence
# Method: HCT116 cells are seeded into black 96-well plates at 5,000 cells per well in 100 microliters (DMEM supplemented with 10% serum) and are incubated overnight. […] Plates are equilibrated to room temperature (5 min). Fifty microliters lysis buffer followed by 50 microliters substrate solution (ATPLite [2 step], Perkin-Elmer, #601941) is added to each well, and plates are incubated at room temperature 5 minutes. Luminescence is then measured (TopCount, Perkin-Elmer).
compound,measurement,setting,value
"[2H]C1([2H])Oc2cc(Br)c(Sc3nc4c(N)ncnc4n3CCC3CCN(C(=O)[C@H](C)OC(C)=O)CC3)cc2O1 [(2S)-1-[4-(2-{6-amino-8-[(6-bromo-2,2-d2-benzo[d][1,3]dioxol-5-yl)sulfanyl]-9H-purin-9-yl}ethyl)piperidin-1-yl]-1-oxopropan-2-yl acetate]",IC50,purified human Hsp90,78 nM
same,IC50,HCT116 cells,730 nM
"[2H]C1([2H])Oc2cc(Br)c(Sc3nc4c(N)ncnc4n3CCC3CCN(C(=O)[C@H](C)O)CC3)cc2O1 [(2S)-1-[4-(2-{6-amino-8-[(6-bromo-2,2-d2-benzo[d][1,3]dioxol-5-yl)sulfanyl]-9H-purin-9-yl}ethyl)piperidin-1-yl]-2-hydroxypropan-1-one]",IC50,purified human Hsp90,250 nM
same,IC50,HCT116 cells,1200 nM
